Assay results: ChEMBL document CHEMBL5375981, “Enhanced Tumor Targeting and Penetration of Proteolysis-Targeting Chimeras through iRGD Peptide Conjugation: A Strategy for Precise Protein Degradation in Breast Cancer” (J Med Chem, 2023)
Calls of active or inactive are those of the source.

What was measured:
[1] = molecular target: Bromodomain-containing protein 4 (Homo sapiens) (UniProt O60885); assay: Induction of BRD4 degradation in human MDA-MB-231 cells harboring high integrin alphaVbeta3 expression at 300 nM incubated for 16 to 20 hrs by Western blot analysis; type: cell-based; settings: time 16-20 hrs
[2] = test system: MDA-MB-231; assay: Antitumor activity against human MDA-MB-231 cells xenografted in BALB/C nude mouse assessed as induction of apoptosis in tumor cells at 5 to 8 uM, iv administered every other day and measured after 21 days by immunohistochemistry; type: functional, organism-based; settings: dose 5-8 µM, time 21.0 day
[3] = molecular target: Bromodomain-containing protein 4 (Homo sapiens) (UniProt O60885); assay: (§1) Induction of BRD4 degradation in human MDA-MB-231 cells harboring high integrin alphaVbeta3 expression assessed as reduction in BRD4 levels at 500 nM pretreated with integrin receptor antagonist cilengitide for 2 hrs followed by compound addition and measured after 12 hrs by immunofluorescence staining based confocal microscopic analysis; type: cell-based
[4] = Toxicity in BALB/C mouse xenografted with human MDA-MB-231 cells assessed as effect on kidney weight at 5 to 8 uM, iv administered every other day for 21 days; type: organism-based; settings: in vivo, 504 h, dose 5-8 µM, time 21 day
[5] = Toxicity in BALB/C mouse xenografted with human MDA-MB-231 cells assessed as heart damage at 5 to 8 uM, iv administered every other day for 21 days and measured 37 days post treatment by H and E staining based assay; type: organism-based; settings: in vivo, 1392 h, dose 5-8 µM, time 58 day
[6] = Toxicity in BALB/C mouse xenografted with human MDA-MB-231 cells assessed as effect on lung weight at 5 to 8 uM, iv administered every other day for 21 days; type: organism-based; settings: in vivo, 504 h, dose 5-8 µM, time 21 day
[7] = molecular target: Bromodomain-containing protein 4 (Homo sapiens) (UniProt O60885); assay: Induction of BRD4 degradation in human MDA-MB-231 cells harboring high integrin alphaVbeta3 expression assessed as reduction in BRD4 levels at 500 nM incubated for 12 hrs by immunofluorescence staining based confocal microscopic analysis; type: cell-based
[8] = test system: MDA-MB-231; assay: Antitumor activity against human MDA-MB-231 cells xenografted in BALB/C nude mouse assessed as tumor growth inhibition at 8 uM, iv administered every other day and measured after 21 days by vernier caliper method relative to control; type: functional; settings: MDA-MB-231, 504 h, time 21 day, read-out: TGI
[9] = Toxicity in BALB/C mouse xenografted with human MDA-MB-231 cells assessed as weight loss at 5 to 8 uM, iv administered for 21 days and measured every 3 days; type: organism-based; settings: in vivo, 504 h, dose 5-8 µM, time 21 day
[10] = test system: MDA-MB-231; assay: Antitumor activity against human MDA-MB-231 cells xenografted in BALB/C nude mouse assessed as appearance of collapsed extravascular tumor tissue at 5 uM, iv administered every other day and measured after 21 days by H and E staining based assay; type: functional, organism-based; settings: time 21.0 day
[11] = molecular target: Bromodomain-containing protein 4 (Homo sapiens) (UniProt O60885); assay: Induction of BRD4 degradation in human MDA-MB-231 cells harboring high integrin alphaVbeta3 expression at 0.1 to 1 uM incubated for 24 hrs by Western blot analysis; type: cell-based; settings: dose 0.1-1 µM
[12] = Toxicity in BALB/C mouse xenografted with human MDA-MB-231 cells assessed as effect on heart weight at 5 to 8 uM, iv administered every other day for 21 days; type: organism-based; settings: in vivo, 504 h, dose 5-8 µM, time 21 day
[13] = Toxicity in BALB/C mouse xenografted with human MDA-MB-231 cells assessed as liver damage at 5 to 8 uM, iv administered every other day for 21 days and measured 37 days post treatment by H and E staining based assay; type: organism-based; settings: in vivo, 1392 h, dose 5-8 µM, time 58 day
[14] = molecular target: Bromodomain-containing protein 4 (Homo sapiens) (UniProt O60885); assay: Induction of BRD4 degradation in human L02 cells lacking integrin alphaVbeta3 expression at 300 nM incubated for 12 hrs by immunofluorescence staining based confocal microscopic analysis; type: cell-based
[15] = Toxicity in BALB/C mouse xenografted with human MDA-MB-231 cells assessed as kidney damage at 5 to 8 uM, iv administered every other day for 21 days and measured 37 days post treatment by H and E staining based assay; type: organism-based; settings: in vivo, 1392 h, dose 5-8 µM, time 58 day
[16] = test system: MDA-MB-231; assay: Antitumor activity against human MDA-MB-231 cells xenografted in BALB/C nude mouse assessed as inhibition of cell proliferation by measuring reduction in number of Ki67-stained cells at 5 to 8 uM, iv administered every other day and measured after 21 days by immunohistochemistry; type: functional, organism-based; settings: dose 5-8 µM, time 21.0 day
[17] = Drug release in PBS assessed as increase in (2S)-1-((R)-2-(tert-butyl)-17-((S)-4-(4-chlorophenyl)-2,3,9-trimethyl-6H-thieno[3,2-f][1,2,4]triazolo[4,3-a][1,4]diazepin-6-yl)-4,16-dioxo-6,9,12-trioxa-3,15-diazaheptadecanoyl)-4-hydroxy-N-((S)-1-(4-(4-methylthiazol-5-yl)phenyl)ethyl)pyrrolidine-2-carboxamide concentration at 50 uM in presence of GSH by LC-MS analysis; type: ADME; settings: buffer, TDE = time-dependent effect
[18] = test system: MDA-MB-231; assay: Antitumor activity against human MDA-MB-231 cells xenografted in BALB/C nude mouse assessed as disruption of tumor blood vessel wall at 5 uM, iv administered every other day and measured after 21 days by H and E staining based assay; type: functional, organism-based; settings: time 21.0 day
[19] = test system: Mus musculus; assay: In vivo induction of BRD4 degradation in BALB/C mouse xenografted with human MDA-MB-231 cells assessed as reduction in BRD4 level by measuring reduction in green fluorescence at 5 to 8 uM, iv administered every other day and measured after 21 days by immunofluorescence analysis; type: functional, organism-based; settings: dose 5-8 µM, time 21.0 day
[20] = molecular target: Bromodomain-containing protein 4 (Homo sapiens) (UniProt O60885); assay: as §1, with “NRP-1 inhibitor EG00229” for “integrin receptor antagonist cilengitide”; type: cell-based
[21] = Toxicity in BALB/C mouse xenografted with human MDA-MB-231 cells assessed as effect on spleen weight at 5 to 8 uM, iv administered every other day for 21 days; type: organism-based; settings: in vivo, 504 h, dose 5-8 µM, time 21 day
[22] = species: Homo sapiens; assay: Antitumor activity against patient-derived Breast cancer organoid assessed as inhibition of cell growth at 0.5 to 1 uM incubated for 3 days by CCK-8 assay; type: functional, tissue-based; settings: dose 0.5-1 µM, time 3.0 day
[23] = test system: MDA-MB-231; assay: Antimigratory activity against human MDA-MB-231 cells harboring high integrin alphaVbeta3 expression assessed as inhibition of cell migration incubated for 48 hrs by crystal violet staining based transwell assay; type: functional; settings: dose 200-300 nM
[24] = test system: Mus musculus; assay: In vivo induction of BRD4 degradation in BALB/C mouse xenografted with human MDA-MB-231 cells assessed as reduction in BRD4 level in tumor at 5 to 8 uM, iv administered every other day and measured after 21 days by immunohistochemistry analysis; type: functional, organism-based; settings: dose 5-8 µM, time 21.0 day
[25] = test system: MDA-MB-231; assay: Antitumor activity against human MDA-MB-231 cells xenografted in BALB/C nude mouse assessed as tumor growth inhibition at 5 uM, iv administered every other day and measured after 21 days by vernier caliper method relative to control; type: functional; settings: MDA-MB-231, 504 h, time 21 day, read-out: TGI
[26] = Toxicity in BALB/C mouse xenografted with human MDA-MB-231 cells assessed as effect on liver weight at 5 to 8 uM, iv administered every other day for 21 days; type: organism-based; settings: in vivo, 504 h, dose 5-8 µM, time 21 day
[27] = species: Homo sapiens; assay: Antitumor activity against patient-derived Breast cancer organoid assessed as reduction in number of proliferating cells by measuring reduction in red fluorescence at 0.5 uM incubated for approximately 3 days by Edu incorporation assay; type: functional, tissue-based; settings: time 3.0 day
[28] = Solubility in distilled water measured for 30 mins by ultraviolet spectrophotometry analysis; type: physicochemical
[29] = molecular target: Bromodomain-containing protein 4 (Homo sapiens) (UniProt O60885); assay: Induction of BRD4 degradation in human MDA-MB-231 cells harboring high integrin alphaVbeta3 expression at 1 uM incubated for 12 hrs by immunofluorescence staining based confocal microscopic analysis; type: cell-based
[30] = test system: MDA-MB-231; assay: Antiproliferative activity against human MDA-MB-231 cells harboring high integrin alphaVbeta3 expression assessed as inhibition of cell growth incubated for 72 hrs by CCK-8 assay; type: functional, cell-based; settings: MDA-MB-231, 72 h

Cc1ncsc1-c1ccc([C@H](C)NC(=O)[C@@H]2C[C@@H](OC(=O)OCCSSCCOC(=O)CCC(=O)NCCCC[C@@H]3NC(=O)[C@H](CC(=O)O)NC(=O)CNC(=O)[C@H](CCCNC(=N)N)NC(=O)[C@@H](N)CSSC[C@@H](C(=O)O)NC(=O)[C@H](CC(=O)O)NC(=O)[C@@H]4CCCN4C(=O)CNC3=O)CN2C(=O)[C@@H](NC(=O)COCCOCCOCCNC(=O)C[C@@H]2N=C(c3ccc(Cl)cc3)c3c(sc(C)c3C)-n3c(C)nnc32)C(C)(C)C)cc1
Tde: Drug metabolism [17]
Non-Toxic: Activity [4] | Activity [5] | Activity [6] | Activity [9] | Activity [12] | Activity [13] | Activity [15] | Activity [21] | Activity [26]
81.5%: inhibition in vivo at 8 µM [8]
88 nM: IC50 [30]
62.3%: inhibition in vivo at 5 µM [25]
inactive: Activity [3] | Activity [14] | Activity [20]
> 10 mM: solubility at 0.5 h [28]
active: Activity [1] | Activity [2] | Activity [7] | Activity [10] | Activity [11] | Activity [16] | Activity [18] | Activity [19] | Activity [22] | Activity [23] Dose-Dependent Effect | Activity [24] | Activity [27] | Activity [29]
